Counter-ions that a name gives are not always drawn.
The molecules below were run against T1, human PTH1 receptor (Homo sapiens, UniProt Q03431) (assay: In vitro cAMP signal activity in HKRK-B7 cells (LLC-PK1 cells overexpressing the human PTH1 receptor)). Details: HKRK-B7 cells; compound at 1×10^−3 M; […]; 0.1 µM.
T1 sequence (Q03431 27-593): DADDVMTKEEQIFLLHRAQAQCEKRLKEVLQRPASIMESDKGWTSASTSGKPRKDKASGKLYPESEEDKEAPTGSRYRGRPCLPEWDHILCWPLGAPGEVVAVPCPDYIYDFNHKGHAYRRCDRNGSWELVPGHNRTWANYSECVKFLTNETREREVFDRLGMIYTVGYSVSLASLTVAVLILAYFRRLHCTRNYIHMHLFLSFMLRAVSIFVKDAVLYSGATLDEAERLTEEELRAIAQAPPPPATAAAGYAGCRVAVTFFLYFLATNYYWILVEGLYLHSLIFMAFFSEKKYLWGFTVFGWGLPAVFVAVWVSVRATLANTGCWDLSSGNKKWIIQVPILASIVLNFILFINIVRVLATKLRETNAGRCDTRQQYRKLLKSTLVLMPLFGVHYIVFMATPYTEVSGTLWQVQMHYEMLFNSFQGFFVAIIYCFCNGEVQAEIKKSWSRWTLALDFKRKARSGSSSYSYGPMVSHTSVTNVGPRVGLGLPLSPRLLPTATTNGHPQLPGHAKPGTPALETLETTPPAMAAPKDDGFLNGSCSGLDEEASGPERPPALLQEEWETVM
Format: cell-based

Row | Structure (SMILES) | cAMP production activity (%)
1 | CC(=O)N1CCC(N(C(C)=O)c2ccc(/C=C/S(=O)(=O)N3CCC4(CC3)N=C(c3cccc(OC(F)(F)F)c3)NC4=O)c(C)c2)CC1 [Compound 1294, N-(1-Acetyl-piperidin-4-yl)-N-(3-methyl-4-{(E)-2-[4-oxo-2-(3-trifluoromethoxy-phenyl)-1,3,8-triaza-spiro[4.5]dec-1-ene-8-sulfonyl]-vinyl}-phenyl)-acetamide] | 76

Same assay, conditions: HKRK-B7 cells; compound at 1×10^−3 M; cAMP produced as percentage of that produced by hPTH(1-34) at 100 nM

Row | Structure (SMILES) | cAMP production activity (%)
2 | Cc1cc(C(=O)N2CCC(O)(CF)CC2)cc(C)c1CCS(=O)(=O)N1CCC2(CC1)N=C(c1ccc3c(c1)OC(F)(F)C(F)(F)O3)NC2=O [Compound 1281, 8-{2-[4-(4-fluoromethyl-4-hydroxy-piperidine-1-carbonyl)-2,6-dimethyl-phenyl]-ethanesulfonyl}-2-(2,2,3,3-tetrafluoro-2,3-dihydro-benzo[1,4]dioxin-6-yl)-1,3,8-triaza-spiro[4.5]dec-1-en-4-one] | 95
3 | Cc1cc(C(=O)N2CCC(O)CC2)cc(C)c1/C=C/S(=O)(=O)N1CCC2(CC1)N=C(c1cccc(CC#N)c1)NC2=O [Compound 1282, [3-(8-{(E)-2-[4-(4-Hydroxy-piperidine-1-carbonyl)-2,6-dimethyl-phenyl]-ethenesulfonyl}-4-oxo-1,3,8-triaza-spiro[4.5]dec-1-en-2-yl)-phenyl]-acetonitrile] | 63
4 | Cc1cc(OC2CCNCC2)ccc1/C=C/S(=O)(=O)N1CCC2(CC1)N=C(c1cccc(OC(F)(F)F)c1)NC2=O [Compound 1283, 8-{(E)-2-[2-Methyl-4-(piperidin-4-yloxy)-phenyl]-ethenesulfonyl}-2-(3-trifluoromethoxy-phenyl)-1,3,8-triaza-spiro[4.5]dec-1-en-4-one trifluoroacetate] | 18
5 | Cc1cc(CN)ccc1CCS(=O)(=O)N1CCC2(CC1)N=C(C1CCC(CCC(F)(F)F)CC1)NC2=O.O=C(O)C(F)(F)F (stereo not drawn) [Compound 1284, 8-[2-(4-aminomethyl-2-methyl-phenyl)-ethanesulfonyl]-2-[4-(3,3,3-trifluoro-propyl)-cyclohexyl]-1,3,8-triaza-spiro[4.5]dec-1-en-4-one] | 2.5
6 | Cc1cc(N2CCNCC2=O)ccc1/C=C/S(=O)(=O)N1CCC2(CC1)N=C(C1CCC(C)CC1)NC2=O (stereo not drawn) [Compound 1285, 2-(4-methyl-cyclohexyl)-8-{(E)-2-[2-methyl-4-(2-oxo-piperazin-1-yl)-phenyl]-ethenesulfonyl}-1,3,8-triaza-spiro[4.5]dec-1-en-4-one] | 67
7 | CNc1cc(C)c(CCS(=O)(=O)N2CCC3(CC2)N=C(C2CCCN2)NC3=O)c(C)c1 (stereo not drawn) [Compound 1286, 8-[2-(2,6-Dimethyl-4-methylamino-phenyl)-ethanesulfonyl]-2-pyrrolidin-2-yl-1,3,8-triaza-spiro[4.5]dec-1-en-4-one dihydrochloride] | 35
8 | CNc1cc(C)c(CCS(=O)(=O)N2CCC3(CC2)N=C(C(C)(F)F)NC3=O)c(C)c1.Cl [Compound 1287, 2-(1,1-difluoro-ethyl)-8-[2-(2,6-dimethyl-4-methylamino-phenyl)-ethanesulfonyl]-1,3,8-triaza-spiro[4.5]dec-1-en-4-one hydrochloride] | 64
9 | Cl.[2H]C([2H])([2H])Nc1cc(C)c(/C=C/S(=O)(=O)N2CCC3(CC2)N=C(c2ccc(F)c(C(F)(F)F)c2)NC3=O)c(C)c1 [Compound 1288, 8-[(E)-2-(2,6-dimethyl-4-[1,1,1-^2H3]methylamino-phenyl)-ethenesulfonyl]-2-(4-fluoro-3-trifluoromethyl-phenyl)-1,3,8-triaza-spiro[4.5]dec-1-en-4-one hydrochloride] | 54
10 | CNCc1cc(C)c(/C=C/S(=O)(=O)N2CCC3(CC2)N=C(C2CCC(C)CC2)NC3=O)c(C)c1 (stereo not drawn) [Compound 1289, 8-[(E)-2-(2,6-Dimethyl-4-methylaminomethyl-phenyl)-ethenesulfonyl]-2-(4-methyl-cyclohexyl)-1,3,8-triaza-spiro[4.5]dec-1-en-4-one] | 17
11 | Cc1cc(CN)cc(C)c1/C=C/S(=O)(=O)N1CCC2(CC1)N=C(C1CCC(CCC(F)(F)F)CC1)NC2=O (stereo not drawn) [Compound 1290, 8-[(E)-2-(4-aminomethyl-2,6-dimethyl-phenyl)-ethenesulfonyl]-2-[4-(3,3,3-trifluoro-propyl)-cyclohexyl]-1,3,8-triaza-spiro[4.5]dec-1-en-4-one] | 6.3
12 | Cc1cc(CN)cc(C)c1/C=C/S(=O)(=O)N1CCC2(CC1)N=C(C1CCC(C)CC1)NC2=O (stereo not drawn) [Compound 1291, 8-[(E)-2-(4-aminomethyl-2,6-dimethyl-phenyl)-ethenesulfonyl]-2-(4-methyl-cyclohexyl)-1,3,8-triaza-spiro[4.5]dec-1-en-4-one] | 48
13 | CNCc1cc(C)c(/C=C/S(=O)(=O)N2CCC3(CC2)N=C(C2CCC(CCC(F)(F)F)CC2)NC3=O)c(C)c1 (stereo not drawn) [Compound 1292, 8-[(E)-2-(2,6-dimethyl-4-methylaminomethyl-phenyl)-ethenesulfonyl]-2-[4-(3,3,3-trifluoro-propyl)-cyclohexyl]-1,3,8-triaza-spiro[4.5]dec-1-en-4-one] | 14
14 | CC[C@H]1CC[C@H](C2=NC3(CCN(S(=O)(=O)CCc4ccc(N)c(Cl)c4C)CC3)C(=O)N2)CC1 [Compound 1293, 8-[2-(4-Amino-3-chloro-2-methyl-phenyl)-ethanesulfonyl]-2-(4-ethyl-cyclohexyl)-1,3,8-triaza-spiro[4.5]dec-1-en-4-one] | 84
15 | CC[C@H]1CC[C@H](C2=NC3(CCN(S(=O)(=O)CCc4ccc(NC5=NCCS5)cc4C)CC3)C(=O)N2)CC1 [Compound 1295, 8-{2-[4-(4,5-Dihydro-thiazol-2-ylamino)-2-methyl-phenyl]-ethanesulfonyl}-2-(4-ethyl-cyclohexyl)-1,3,8-triaza-spiro[4.5]dec-1-en-4-one] | 73
16 | CC(=O)Nc1ccc(CCS(=O)(=O)N2CCC3(CC2)N=C(C2CCC(CCCCF)CC2)NC3=O)c(C)c1 (stereo not drawn) [Compound 1296, N-[4-(2-{2-[4-(4-Fluoro-butyl)-cyclohexyl]-4-oxo-1,3,8-triaza-spiro[4.5]dec-1-ene-8-sulfonyl}-ethyl)-3-methyl-phenyl]-acetamide] | 64
17 | Cc1cc(N(C)C(N)=O)cc(C)c1CCS(=O)(=O)N1CCC2(CC1)N=C(C1CCCC(C)C1)NC2=O (stereo not drawn) [Compound 1297, 1-(3,5-Dimethyl-4-{2-[2-(3-methyl-cyclohexyl)-4-oxo-1,3,8-triaza-spiro[4.5]dec-1-ene-8-sulfonyl]-ethyl}-phenyl)-1-methyl-urea] | 98
18 | Cc1cc(N(C)C(N)=O)cc(C)c1CCS(=O)(=O)N1CCC2(CC1)N=C(C1CC(C)(C)CC(C)(C)C1)NC2=O [Compound 1298, 1-(3,5-Dimethyl-4-{2-[4-oxo-2-(3,3,5,5-tetramethyl-cyclohexyl)-1,3,8-triaza-spiro[4.5]dec-1-ene-8-sulfonyl]-ethyl}-phenyl)-1-methyl-urea] | 117
19 | Cc1cc(N2C(=O)NC(CO)C2=O)cc(C)c1CCS(=O)(=O)N1CCC2(CC1)N=C([C@H]1CC[C@H](C)CC1)NC2=O (stereo partly drawn) [Compound 1299, 3-(3,5-Dimethyl-4-{2-[2-(4-methyl-cyclohexyl)-4-oxo-1,3,8-triaza-spiro[4.5]dec-1-ene-8-sulfonyl]-ethyl}-phenyl)-5-hydroxymethyl-imidazolidine-2,4-dione] | 87
20 | Cc1cc(CN(C)C(N)=O)cc(C)c1/C=C/S(=O)(=O)N1CCC2(CC1)N=C(C1CCC(CCC(F)(F)F)CC1)NC2=O (stereo not drawn) [Compound 1300, 1-[3,5-Dimethyl-4-((E)-2-{4-oxo-2-[4-(3,3,3-trifluoro-propyl)-cyclohexyl]-1,3,8-triaza-spiro[4.5]dec-1-ene-8-sulfonyl}-vinyl)-benzyl]-1-methyl-urea] | 81
21 | Cc1cc(CN(C)C(N)=O)cc(C)c1/C=C/S(=O)(=O)N1CCC2(CC1)N=C(C1CCC(C)CC1)NC2=O (stereo not drawn) [Compound 1301, 1-(3,5-dimethyl-4-{(E)-2-[2-(4-methyl-cyclohexyl)-4-oxo-1,3,8-triaza-spiro[4.5]dec-1-ene-8-sulfonyl]-vinyl}-benzyl)-1-methyl-urea] | 49
22 | Cc1cc(N(C)C(N)=O)cc(C)c1CCS(=O)(=O)N1CCC2(CC1)N=C(CCCCCCCC(F)(F)C(F)(F)F)NC2=O [Compound 1302, 1-(3,5-dimethyl-4-{2-[4-oxo-2-(8,8,9,9,9-pentafluoro-nonyl)-1,3,8-triaza-spiro[4.5]dec-1-ene-8-sulfonyl]-ethyl}-phenyl)-1-methyl-urea] | 95
23 | Cc1cc(N(C)C(N)=O)cc(C)c1/C=C/S(=O)(=O)N1CCC2(CC1)N=C(CCCCCCCC(F)(F)C(F)(F)F)NC2=O [Compound 1303, 1-(3,5-dimethyl-4-{(E)-2-[4-oxo-2-(8,8,9,9,9-pentafluoro-nonyl)-1,3,8-triaza-spiro[4.5]dec-1-ene-8-sulfonyl]-vinyl}-phenyl)-1-methyl-urea] | 102
24 | Cc1cc(N(C)C(N)=O)cc(C)c1/C=C/S(=O)(=O)N1CCC2(CC1)N=C(CCCCCCCCC(F)(F)F)NC2=O [Compound 1304, 1-(3,5-dimethyl-4-{(E)-2-[4-oxo-2-(9,9,9-trifluoro-nonyl)-1,3,8-triaza-spiro[4.5]dec-1-ene-8-sulfonyl]-vinyl}-phenyl)-1-methyl-urea] | 107

— patent US9169254B2, “Spiroimidazolone derivative” (Chugai Seiyaku Kabushiki Kaisha, priority 2009, dated 2015)
